Values after ≈ are worked out from the molar mass of the structure shown.
Details: buffer; pH 7.4; 200.0 µM

| SMILES | solubility kinetic [µg/mL] |
| --- | --- |
| CC(=O)Nc1ccc(CNC(=O)C[N+]2(C)CCOCC2)cc1.[Cl-] | 46.2 |
| Cc1c(C)n(C)c2ccc(C(=O)NCCc3ccco3)cc12 | > 44.5 |
| COc1ccc(C(C)=O)cc1CC(=O)NCCCn1ccnc1 | > 47.3 |
| COc1ccc(OCC(=O)Nc2ccc(N3CCC(C)CC3)cc2)cc1 | < 0.4 |
| CC(C)N(Cc1ccccc1)C(=O)CN1c2cccc3cccc(c23)S1(=O)=O | 11 (≈ 27.9 µM) |
| Cc1ccc(CC(=O)Nc2ccc(S(=O)(=O)N3CCOCC3)cc2)cc1 | 7.5 (≈ 20 µM) |
| COc1ccc(CCCC(=O)NCCc2ccccc2)cc1 | 35.2 (≈ 118 µM) |
| O=C(OCc1csc(-c2ccccc2)n1)c1ccc(O)cc1 | < 0.7 |
| CC(OC(=O)c1ccco1)C(=O)Nc1nc(-c2ccccc2)cs1 (stereo not given) | 4.5 (≈ 13.1 µM) |
| O=S(=O)(c1ccc(F)cc1)N1CCN(c2ccc(F)cc2)CC1 | 0.5 (≈ 1.48 µM) |
| CN(CC(=O)Nc1ccccc1C(F)(F)F)C(=O)C1CC1 | > 45 |
| CC(C)(C)NC(=O)/C(=C\c1ccco1)NC(=O)c1ccco1 | > 45.3 |
| O=C(CC(Cc1ccccc1)C(=O)O)Nc1ccc(F)cc1 (stereo not given) | > 45.2 |
| CCC1(CC)NC(=O)N(CC(=O)Nc2cccc3ccccc23)C1=O | > 50.9 |
| COc1ccc(CCC(C)N(C)Cc2ccccc2)cc1 (stereo not given) | 34.9 (≈ 123 µM) |
| COc1nccc(C(F)(F)F)c1C(=O)NC(=O)Nc1ccccc1 | 11.5 (≈ 33.9 µM) |
| COc1ccccc1NCc1cc(=O)oc2c(C)c(O)ccc12 | 4.4 (≈ 14.1 µM) |
| COc1ccc(C(=O)CC(=O)C(=O)Nc2ccc(Cl)cc2)cc1 | 5.5 (≈ 16.6 µM) |
| COc1ccccc1N1CCN(C(=O)c2cc3cc(Cl)ccc3[nH]2)CC1 | < 0.3 |
| O=C(CN1CCN(C/C=C/c2ccccc2)CC1)Nc1ccc(F)cc1F | 49.9 (≈ 134 µM) |
| C=CCn1c(-c2ccc(Cl)cc2)cnc1SC(C)C(=O)NC(N)=O (stereo not given) | 14.2 (≈ 38.9 µM) |
| O=C(Nc1ccc(S(=O)(=O)NC2=NCCCCC2)cc1)c1cccc(S(=O)(=O)N2CCOCC2)c1 | 51.5 (≈ 98.9 µM) |
| CCS(=O)(=O)N1CCN(c2ccnc3cc(Cl)ccc23)CC1 | > 51 |
| CC(=O)c1sc(NC(=O)c2ccc(Br)o2)nc1C | 12.8 (≈ 38.9 µM) |
| COc1ccccc1NC(=O)C(=O)N1CCCC1 | 35.3 (≈ 142 µM) |

The remaining lines, values ahead:

| solubility kinetic [µg/mL] | SMILES |
| --- | --- |
| > 49.2 | CCOC(=O)c1cc(C#N)c(N2CCNCC2)nc1C(F)(F)F |
| 0.9 (≈ 2.79 µM) | CCOc1ccccc1NC(=O)c1nc(-c2ccccc2)oc1C |
| > 44 | CCC(=O)Nc1ccc2c(c1)ncn2CCc1ccccc1 |
| > 33.6 | Cc1cc(C(=O)NC(C)C2CCCO2)no1 (stereo not given) |
| > 38.7 | O=C(Nc1ncccc1O)c1ccc2c(c1)OCO2 |
| 47.7 (≈ 142 µM) | O=C(CCc1nc(-c2ccccc2Cl)no1)NCC1CCCO1 (stereo not given) |
| 9.4 (≈ 28.6 µM) | O=C(COC(=O)c1cnc(Cl)c(Cl)c1)c1ccc(F)cc1 |
| > 44.1 | Cc1cc2c(Nc3ccc(O)cc3)ncnc2s1.Cl |
| > 59.9 | CCN(C(=O)CN1CCCC(C)C1)c1c(N)n(Cc2ccccc2)c(=O)[nH]c1=O (stereo not given) |
| > 51.4 | CCc1nc(N2CCN(C(C)=O)CC2)c(C#N)c2c1COC(C)(C)C2 |
| > 50.3 | C=CCN1C(=O)C(CC(=O)O)SC1=Nc1cccc([N+](=O)[O-])c1 (stereo not given) |
| < 0.3 | Cc1ccc([N+](=O)[O-])cc1NC(=O)Cc1ccc(F)cc1 |
| 52.3 (≈ 150 µM) | Cc1ccc(C(=O)N2CCCC(C(=O)c3cc(F)ccc3F)C2)s1 (stereo not given) |
| 1.1 (≈ 3.43 µM) | NC(=O)c1ccc(NC(=O)COc2cccc3ccccc23)cc1 |
| > 51.8 | Cc1c(NC(=O)C(c2ccccc2)c2ccccc2)cccc1C(=O)O |
| 13 (≈ 26.9 µM) | NS(=O)(=O)c1ccc(NC(=O)COC(=O)c2ccc(S(=O)(=O)N3CCOCC3)cc2)cc1 |
| 26.6 (≈ 64.3 µM) | CCCCc1ccc(NC(=O)Cn2c(=O)c(N3CCCCC3)c(N)n(C)c2=O)cc1 |
| > 41 | CC(=O)Nc1ccc(/C=N/N2C(C)CCCC2C)cc1 (stereo not given) |
| 40.2 (≈ 147 µM) | N#Cc1c(-c2ccccc2)nc(-c2cccnc2)[nH]c1=O |
| 50 (≈ 138 µM) | O=C1CN(C(=O)COC(=O)c2c(F)cccc2Cl)c2ccccc2N1 |

From PubChem BioAssay AID1996
